The values that follow come from US20260138978A1, “POSITIVE ALLOSTERIC MODULATORS OF THE MUSCARINIC ACETYLCHOLINE RECEPTOR M1” (Vanderbilt University, priority 2022, published 2026).

In assay [1] the target is T1, human mAChRM1 (Homo sapiens, UniProt P11229).
T1 construct: host or cells: CHO-K1
T1 sequence (P11229 1-460): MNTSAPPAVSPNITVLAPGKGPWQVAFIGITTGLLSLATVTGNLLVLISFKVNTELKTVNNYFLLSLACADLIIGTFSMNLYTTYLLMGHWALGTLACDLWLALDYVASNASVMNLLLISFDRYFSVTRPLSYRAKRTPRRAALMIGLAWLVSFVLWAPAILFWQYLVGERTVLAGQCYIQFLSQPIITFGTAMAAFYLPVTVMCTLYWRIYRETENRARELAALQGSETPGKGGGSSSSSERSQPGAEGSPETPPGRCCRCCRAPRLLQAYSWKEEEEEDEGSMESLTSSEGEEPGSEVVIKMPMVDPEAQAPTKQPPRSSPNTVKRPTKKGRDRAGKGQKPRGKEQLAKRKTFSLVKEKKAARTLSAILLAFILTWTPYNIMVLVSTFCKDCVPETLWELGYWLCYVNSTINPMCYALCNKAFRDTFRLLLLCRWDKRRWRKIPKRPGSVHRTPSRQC
Put plainly: mAChR M1 cell-based functional assay (calcium mobilization), positive allosteric modulator activity: increase in the EC20 acetylcholine response. The conditions noted are these: for Emax: PAM mode; for EC50: increase in the EC20 acetylcholine response, read-out: PAM Activity Human M1 EC50. Put shortly:
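Potentiation is scored as the rise in an EC20 acetylcholine-evoked calcium signal across 11-point (1:3) compound series, fitted with a four-parameter logistic equation to give EC50 and Emax. Read-out is Fluo-4 fluorescence ratio in hM1-transfected CHO-K1 cells, measured kinetically on FDSS.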
In general terms: Calcium flux is commonly read through the fluorescence of an indicator in the cells.

For assay [2], the target named is T1, human mAChRM1. Nature of the assay: mAChR M1 cell-based functional assay (calcium mobilization), agonist activity upon compound addition, Emax relative to acetylcholine maximum. As to conditions: for Agonist Activity Human M1 EC50 / EC50: calcium mobilization upon compound addition; for Emax: relative to the maximum for acetylcholine; call rule not given here. Put shortly:
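Emax is given as a percentage of the maximal acetylcholine response, from four-parameter curves of compound-evoked calcium mobilization. Human M1-transfected CHO-K1 cells carried Fluo-4 dye, and compound (11 concentrations, 1:3 steps) was applied at 4 s of a 300 s kinetic fluorescence recording.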

As usually defined, the Emax is the maximal effect, on the per cent scale that the assay sets. For orientation: EC50 means the concentration that produces a half-maximal response. On to `CC(C)(O)c1ccc(-c2ccc(CN3Cc4ncccc4C3=O)c(F)c2)cc1` [Compound 13, 6-((3-fluoro-4′-(2-hydroxypropan-2-yl)-[1,1′-biphenyl]-4-yl)methyl)-6,7-dihydro-5H-pyrrolo[3,4-b]pyridin-5-one], for which, at human mAChRM1 [1], the Emax was 72% and the concentration giving a half-maximal response (EC50) came to 2120 nM. The “Agonist Activity Human M1 EC50” value at human mAChRM1 [2] is “inactive”.

Take `Cc1cc(-c2ccc(C(C)(C)O)cc2)cc(F)c1CN1Cc2ncccc2C1=O` [Compound 9, 6-((3-fluoro-4′-(2-hydroxypropan-2-yl)-5-methyl-[1,1′-biphenyl]-4-yl)methyl)-6,7-dihydro-5H-pyrrolo[3,4-b]pyridin-5-one]: at human mAChRM1 [1], the Emax is 76% and the concentration for a half-maximal effect (EC50) stood at 1330 nM. Moreover, the “Agonist Activity Human M1 EC50” value at human mAChRM1 [2] was “inactive”.

As to `Cn1cc2c(-c3cc(F)c(CN4Cc5ncccc5C4=O)c(C4CC4)c3)ccc(C(C)(C)O)c2n1` [Compound 3, 6-(2-cyclopropyl-6-fluoro-4-(7-(2-hydroxypropan-2-yl)-2-methyl-2H-indazol-4-yl)benzyl)-6,7-dihydro-5H-pyrrolo[3,4-b]pyridin-5-one], on human mAChRM1 [1], the maximum response (Emax) came out at 86% and the EC50 came out at 45 nM. Further, on human mAChRM1 [2], the EC50 worked out at 5220 nM and the maximal response (Emax) was determined as 47%.

Regarding `Cn1cc2c(-c3cc(Cl)c(CN4Cc5cccnc5C4=O)c(C4CC4)c3)ccc(C(C)(C)O)c2n1` [Compound 134, 6-(2-chloro-6-cyclopropyl-4-(7-(2-hydroxypropan-2-yl)-2-methyl-2H-indazol-4-yl)benzyl)-5,6-dihydro-7H-pyrrolo[3,4-b]pyridin-7-one], at human mAChRM1 [1], the maximum response (Emax) worked out at 76% and the EC50 turned out to be 1310 nM. On human mAChRM1 [2], the EC50 is 9050 nM and the Emax is 60%.

For the compound `Cn1cc2c(-c3cc(F)c(CN4Cc5ncccc5C4=O)c(C4CCCC4)c3)ccc(C(C)(C)O)c2n1` [Compound 66, 6-(2-cyclopentyl-6-fluoro-4-(7-(2-hydroxypropan-2-yl)-2-methyl-2H-indazol-4-yl)benzyl)-6,7-dihydro-5H-pyrrolo[3,4-b]pyridin-5-one], on human mAChRM1 [1], the Emax worked out at 62% and the EC50 amounted to 1910 nM. On human mAChRM1 [2], the “Agonist Activity Human M1 EC50” value is “inactive”.

Consider `CC(C)(O)c1ccc(-c2cc(F)c(CN3Cc4cccnc4C3=O)c(F)c2)cc1` [Compound 117, 6-((3,5-difluoro-4′-(2-hydroxypropan-2-yl)-[1,1′-biphenyl]-4-yl)methyl)-5,6-dihydro-7H-pyrrolo[3,4-b]pyridin-7-one], for which, on human mAChRM1 [1], the maximal response (Emax) is 68% and the half-maximal effective concentration (EC50) came out at 1450 nM. Moreover, the “Agonist Activity Human M1 EC50” value on human mAChRM1 [2] was “inactive”.

As for `Cn1cc(-c2cc(F)c(CN3Cc4ncccc4C3=O)c(F)c2)c2ccc(C(C)(C)O)cc21` [Compound 40, 6-(2,6-difluoro-4-(6-(2-hydroxypropan-2-yl)-1-methyl-1H-indol-3-yl)benzyl)-6,7-dihydro-5H-pyrrolo[3,4-b]pyridin-5-one], at human mAChRM1 [1], the Emax is 73% and the EC50 is 2190 nM. For the same compound, the “Agonist Activity Human M1 EC50” value on human mAChRM1 [2] was “inactive”.

As to `CC(C)(O)c1ccc(-c2ccc(CN3Cc4ncccc4C3=O)cc2)cc1` [Compound 11, 6-((4′-(2-hydroxypropan-2-yl)-[1,1′-biphenyl]-4-yl)methyl)-6,7-dihydro-5H-pyrrolo[3,4-b]pyridin-5-one], on human mAChRM1 [1], the Emax came out at 65% and the EC50 amounted to 6400 nM. Further, on human mAChRM1 [2], the “Agonist Activity Human M1 EC50” value is “inactive”.

Regarding `Cc1cc(-c2ccc(C(C)(C)O)c3ccccc23)cc(F)c1CN1Cc2ncccc2C1=O` [Compound 72, 6-(2-fluoro-4-(4-(2-hydroxypropan-2-yl)naphthalen-1-yl)-6-methylbenzyl)-6,7-dihydro-5H-pyrrolo[3,4-b]pyridin-5-one], on human mAChRM1 [1], the maximal response (Emax) was 60% and the concentration for a half-maximal effect (EC50) stood at 6960 nM. Moreover, at human mAChRM1 [2], the “Agonist Activity Human M1 EC50” value is “inactive”.
